# Reference: patent publication US7674807B2, “Heterocycle-substituted n-phenyl-phthalamide derivatives, related compounds and their use as insecticides” (Bayer CropScience AG, priority 2004, dated 2010)
# Assays:
# [1] = test system: larva of Spodoptera litura; test: Test against larva of Spodoptera litura (leaf dip, sweet potato leaves); type: in vivo; conditions: 20 ppm concentration of the active component; third instar larvae; counted after 7 days; 25° C.
# Method: Preparation of Test Solution:
# In order to make an appropriate formulation of an active compound, 1 part by weight of the active compound was mixed with the above-mentioned amount of solvent containing the above-mentioned amount of emulsifier and the mixture was diluted with water to a prescribed concentration.
# Leaves of sweet potato were soaked in the test solution diluted to a prescribed concentration with water, dried in the air and put in a dish of 9 cm diameter.
# 10 larvae of Spodoptera litura at the third instar were placed on the leaves and kept in a room at the constant temperature of 25° C. After 2 and 4 days further leaves of sweet potato were added and after 7 days the number of dead larvae was counted and the rate of death was calculated.
# In this test the results of 2 dishes at 1 section were averaged.
# [2] = test system: larva of Cnaphalocrocis medinalis Guenee; test: Test against larva of Cnaphalocrocis medinalis Guenee (sprayed paddy rice foliage); type: in vivo; conditions: 20 ppm concentration of the active component; second instar larvae; counted after 7 days; 25° C.
# Method: Paddy rice (variety: Tamanishiki) planted in a pot was treated by spraying 50 ml per pot of the diluted aqueous solution of the prescribed concentration of the active compound prepared in the same manner as in the above-mentioned Biological Test Example 1. After the treated rice plant was dried in the air, their foliage part was cut in 4-5 cm length, which were put in a dish with 9 cm diameter with a sheet of filter paper and 2 ml of water. Five larvae of Cnaphalocrocis medinalis Guenee at the second instar were put in the dish that was placed in a room at the constant temperature of 25° C. After 2 and 4 days, each rest (each ⅓ amount) of foliage parts of rice plant were cut in the same manner and added to the dish. After 7 days the number of dead larvae was counted and the rate of death was calculated. In this test the results of 2 dishes at 1 section were averaged.
SMILES,"controlling effect, rate of death [1] [%]","controlling effect, rate of death [2] [%]"
Cc1cc(Cn2cc(C(F)(F)C(F)(F)C(F)(F)F)c(C(F)(F)C(F)(F)C(F)(F)F)n2)ccc1NC(=O)c1cccc(Cl)c1C(=O)N[C@@H](C)C[S+](C)[O-] (stereo partly shown) [compound 668],100,100
Cc1cc(Cc2c(C(F)(F)F)nn(C(F)F)c2OC(F)F)ccc1NC(=O)c1cccc(I)c1C(=O)NC(C)CS(C)(=O)=O (stereo not shown) [compound 264],100,100
Cc1cc(Cn2nc(C(F)(F)F)nc2C(F)(F)F)ccc1NC(=O)c1cccc(Cl)c1C(=O)NC(C)(C)C[S+](C)[O-] (stereo not shown) [compound 138],100,100
Cc1cc(Cn2nc(C(F)(F)C(F)(F)F)nc2C(F)(F)F)ccc1NC(=O)c1cccc(Cl)c1C(=O)NC(C)(C)C[S+](C)[O-] (stereo not shown) [compound 150],100,100
Cc1cc(Cn2cc(C(F)(F)C(F)(F)C(F)(F)F)c(C(F)(F)C(F)(F)C(F)(F)F)n2)ccc1NC(=O)c1cccc(I)c1C(=O)N[C@@H](C)C[S+](C)[O-] (stereo partly shown) [compound 671],100,100
CSC[C@H](C)NC(=O)c1c(Cl)cccc1C(=O)Nc1ccc(Cn2cc(C(F)(F)C(F)(F)C(F)(F)F)c(C(F)(F)C(F)(F)C(F)(F)F)n2)cc1C [compound 667],100,100
"CSC[C@H](C)NC(=O)c1c(F)cccc1C(=O)Nc1ccc(Cn2nc(C(F)(F)F)cc2C(F)(F)F)cc1C [compound 549, N^1-{4-[3,5-bis(trifluoromethyl)-1H-pyrazol-1-ylmethyl]-2-methylphenyl}-3-fluoro-N^2-[1-(S)-1-methyl-2-methylsulfanyl-ethyl]-phthalamide]",100,100
CSCC(C)NC(=O)c1c(I)cccc1C(=O)Nc1ccc(Cn2nc(C(F)(F)C(F)(F)F)nc2C(F)(F)F)cc1C (stereo not shown) [compound 227],100,100
Cc1cc(Cn2nc(C(F)(F)F)nc2C(F)(F)F)ccc1NC(=O)c1cccc(I)c1C(=O)NC(C)C[S+](C)[O-] (stereo not shown) [compound 216],100,100
CSCC(C)NC(=O)c1c(I)cccc1C(=O)Nc1ccc(Cc2c(OC(F)F)nn(C(F)F)c2C(F)(F)F)cc1C (stereo not shown) [compound 268],100,100
Cc1cc(Cn2cc(C(F)(F)C(F)(F)F)c(C(F)(F)F)n2)ccc1NC(=O)c1cccc(I)c1C(=O)N[C@@H](C)CS(C)(=O)=O [compound 642],100,100
Cc1cc(Cn2nc(C(F)(F)F)nc2C(F)F)ccc1NC(=O)c1cccc(I)c1C(=O)NC(C)CS(C)(=O)=O (stereo not shown) [compound 242],100,100
CCSCC(C)NC(=O)c1c(I)cccc1C(=O)Nc1ccc(Cn2nc(C(F)(F)F)cc2C(F)(F)F)cc1C (stereo not shown) [compound 91],100,100
Cc1cc(Cn2nc(C(F)(F)F)nc2C(F)(F)F)ccc1NC(=O)c1cccc(Cl)c1C(=O)NC(C)C[S+](C)[O-] (stereo not shown) [compound 143],100,100
CSCC(C)NC(=O)c1c(OS(C)(=O)=O)cccc1C(=O)Nc1ccc(Cn2nc(C(F)(F)F)cc2C(F)(F)F)cc1C (stereo not shown) [compound 128],100,100
Cc1cc(Cn2nc(C(F)(F)F)cc2C(F)(F)F)ccc1NC(=O)c1cccc(Cl)c1C(=O)NC(C)C[S+](C)[O-] (mixture of isomers) [compound 13],100,100
CSC[C@H](C)NC(=O)c1c(C(=O)Nc2ccc(Cn3nc(C(F)(F)F)cc3C(F)(F)F)cc2C)cccc1[N+](=O)[O-] [compound 543],100,100
CSCC(C)NC(=O)c1c(OS(C)(=O)=O)cccc1C(=O)Nc1ccc(Cn2nc(C(F)(F)F)nc2C(F)(F)F)cc1C (stereo not shown) [compound 251],100,100
Cc1cc(C(C)n2nc(C(F)(F)F)cc2C(F)(F)F)ccc1NC(=O)c1cccc(I)c1C(=O)N[C@@H](C)C[S+](C)[O-] (stereo partly shown) [compound 563],100,100

SMILES,"controlling effect, rate of death [1] [%]","controlling effect, rate of death [2] [%]"
CSCC(C)(C)NC(=O)c1c(I)cccc1C(=O)Nc1ccc(C(C)n2nc(C(F)(F)F)cc2C(F)(F)F)cc1C (stereo not shown) [compound 565],100,100
CSC[C@H](C)NC(=O)c1c(Cl)cccc1C(=O)Nc1ccc(C(C)n2nc(C(F)(F)F)nc2C(F)(F)F)cc1C (stereo partly shown) [compound 568],100,100
Cc1cc(Cn2nc(C(F)(F)F)cc2C(F)(F)F)ccc1NC(=O)c1cccc(I)c1C(=O)N[C@@H](C)CSC(C)C [compound 539],100,100
Cc1cc(Cn2cc(C(F)(F)C(F)(F)C(F)(F)C(F)(F)F)c(C(F)(F)F)n2)ccc1NC(=O)c1cccc(I)c1C(=O)N[C@@H](C)CS(C)(=O)=O [compound 650],100,100
"Cc1cc(Cn2nc(C(F)(F)F)cc2C(F)(F)F)ccc1NC(=O)c1cccc(I)c1C(=O)NC(C)(C)C[S+](C)[O-] (stereo not shown) [compound 83, N^1-{4-[3,5-bis(trifluoromethyl)-1H-pyrazol-1-ylmethyl]-2-methylphenyl}-N^2-(2-methanesulfinyl-1,1-dimethylethyl)-3-iodophthalamide]",100,100
CSC[C@H](C)NC(=O)c1c(I)cccc1C(=O)Nc1ccc(C(C)n2nc(C(F)(F)F)nc2C(F)(F)F)cc1C (stereo partly shown) [compound 571],100,100
CSCC(C)NC(=O)c1c(I)cccc1C(=O)Nc1ccc(Cn2nc(C(F)(F)F)nc2C(F)F)cc1C (stereo not shown) [compound 238],100,100
Cc1cc(Cn2nc(C(F)(F)F)cc2C(F)(F)F)ccc1NC(=O)c1cccc(Br)c1C(=O)NC(C)C[S+](C)[O-] (mixture of isomers) [compound 51],100,100
Cc1cc(Cn2nc(C(F)(F)F)nc2C(F)(F)F)ccc1NC(=O)c1cccc(I)c1C(=O)NC(C)(C)C[S+](C)[O-] (stereo not shown) [compound 212],100,100
Cc1cc(Cn2nc(C(F)(F)C(F)(F)F)nc2C(F)(F)F)ccc1NC(=O)c1cccc(Cl)c1C(=O)NC(C)CS(C)(=O)=O (stereo not shown) [compound 157],100,100
Cc1cc(Cn2nc(C(F)(F)F)nc2C(F)(F)F)ccc1NC(=O)c1cccc(Cl)c1C(=O)NC(C)(C)CS(C)(=O)=O [compound 139],100,100
CSCC(C)(C)NC(=O)c1c(Cl)cccc1C(=O)Nc1ccc(Cn2nc(C(F)(F)C(F)(F)F)nc2C(F)(F)F)cc1C [compound 149],100,100
CSC[C@H](C)NC(=O)c1c(Cl)cccc1C(=O)Nc1ccc(C(C)n2nc(C(F)(F)F)cc2C(F)(F)F)cc1C (stereo partly shown) [compound 559],100,100
CSC[C@H](C)NC(=O)c1c(I)cccc1C(=O)Nc1ccc(Cn2nc(C(F)(F)F)c(I)c2C(F)(F)F)cc1C [compound 554],100,100
Cc1cc(C(C)n2nc(C(F)(F)F)cc2C(F)(F)F)ccc1NC(=O)c1cccc(I)c1C(=O)NC(C)(C)C[S+](C)[O-] (stereo not shown) [compound 566],100,100
CSCC(C)NC(=O)c1c(I)cccc1C(=O)Nc1ccc(-n2nc(C(F)(F)C(F)(F)F)cc2C(F)(F)F)cc1C (stereo not shown) [compound 473],100,100
Cc1cc(Cn2cc(C(F)(F)C(F)(F)C(F)(F)F)c(C(F)(F)C(F)(F)C(F)(F)F)n2)ccc1NC(=O)c1cccc(Cl)c1C(=O)N[C@@H](C)CS(C)(=O)=O [compound 669],100,100
CSCC(C)NC(=O)c1c(Br)cccc1C(=O)Nc1ccc(Cn2nc(C(F)(F)F)cc2C(F)(F)F)cc1C (stereo not shown) [compound 49],100,100
Cc1cc(Cn2cc(C(F)(F)C(F)(F)C(F)(F)F)c(C(F)(F)C(F)(F)C(F)(F)F)n2)ccc1NC(=O)c1cccc(I)c1C(=O)N[C@@H](C)CS(C)(=O)=O [compound 672],100,100
